This is an account of results in ChEMBL document CHEMBL5576038, “Design of a novel long-acting dual GLP-1/GIP receptor agonist” (Bioorg Med Chem, 2024).

Assay [1] addresses T1, Gastric inhibitory polypeptide receptor (Homo sapiens, UniProt P48546).
T1 sequence (P48546 whole entry): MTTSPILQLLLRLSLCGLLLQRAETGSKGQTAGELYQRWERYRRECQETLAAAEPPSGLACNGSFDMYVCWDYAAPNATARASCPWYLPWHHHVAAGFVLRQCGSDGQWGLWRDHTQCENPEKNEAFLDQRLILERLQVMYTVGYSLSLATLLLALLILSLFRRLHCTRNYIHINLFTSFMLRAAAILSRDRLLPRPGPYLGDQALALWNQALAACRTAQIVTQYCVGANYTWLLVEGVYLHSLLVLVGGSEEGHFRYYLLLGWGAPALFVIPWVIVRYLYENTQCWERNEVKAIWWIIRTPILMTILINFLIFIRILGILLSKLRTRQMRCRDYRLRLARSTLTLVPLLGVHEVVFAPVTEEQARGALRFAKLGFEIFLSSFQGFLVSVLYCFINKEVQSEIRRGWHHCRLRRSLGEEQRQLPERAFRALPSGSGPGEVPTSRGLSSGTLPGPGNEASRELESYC
The assay can be described thus: Agonist activity at human GIPR expressed in CHO cells assessed as increase in cAMP production incubated for 30 mins by Eu-cAMP tracer based microplate reader analysis. It counts as functional, cell-based.

Assay [2] has as its target Glucagon-like peptide 1 receptor (Homo sapiens, UniProt P43220). The assay can be described thus: Agonist activity at human GLP-1R expressed in CHO cells assessed as increase in cAMP production incubated for 30 mins by Eu-cAMP tracer based microplate reader analysis. It counts as functional, cell-based. On the technique in general: Cyclic AMP is a second messenger, typically raised through Gs and lowered through Gi signalling.

Assay [3] relates to Mus musculus. The assay can be described thus: Glucose-lowering effect in male ICR mouse assessed as reduction in plasma glucose AUC (0 to 72 hrs) at 30 nmol/kg, sc pretreated for 71 hrs followed by […] administration and measured after 60 mins by oral glucose tolerance test. It counts as functional, organism-based.
For assay [4], the system named is Mus musculus. Nature of the assay: Increase in body weight in male ICR mouse at 30 nmol/kg, sc measured after 2 days. To be noted: time 2.0 day. It counts as functional, organism-based.
In assay [5] the test system is Mus musculus. The assay can be described thus: Hypoglycemic effect in male db/db mouse model assessed as reduction in body weight at 30 nmol/kg, sc administered every 3 days for 60 days and measured every 3 days. The class given is functional, organism-based. To be noted: time 60.0 day.
For assay [6], the system named is Mus musculus. The assay can be described thus: Hypoglycemic effect in male db/db mouse model assessed as reduction in HbA1c level at 30 nmol/kg, sc administered every 3 days for 60 days and measured on day 18, 31, 37, 52, 58 and 60 by auto-chemistry analyzer. The class given is functional, organism-based. To be noted: time 60.0 day.
The test system of assay [7] is Mus musculus. The assay can be described thus: Anti-obesity activity in male C57/B16 mouse model of diet-induced obesity assessed as reduction in body weight at 30 nmol/kg, sc administered every 3 days for 46 days and measured every 3 days relative to control. To be noted: time 46.0 day. The class given is functional, organism-based. More on the design: scale not given: the % may be the effect or the level left.

Calls of active or inactive are those of the source. The rule behind the calls is not given here. Where a SMILES comes first, the peptide text is derived from it. [ ]: non-standard residue; d: D form. The star is where a group is joined. X4 = O=C(O)CCCCCCCCCCCCCCCCCCC(=O)NCCOCCOCC(=O)N[C@@H](CCC(=O)N[C@@H](CCC(=O)N[C@@H](CCCCNC(=O)C*)C(=O)O)C(=O)O)C(=O)O; X3 = O=C(O)CCCCCCCCCCCCCCCCC(=O)NCCOCCOCC(=O)N[C@@H](CCC(=O)N[C@@H](CCC(=O)N[C@@H](CCCCNC(=O)C*)C(=O)O)C(=O)O)C(=O)O; Aib = CC(C)(N)C(=O)O

The term EC50 denotes the midpoint of the concentration-response curve.

Glucagon-like peptide 1 receptor, sequence (P43220 whole entry): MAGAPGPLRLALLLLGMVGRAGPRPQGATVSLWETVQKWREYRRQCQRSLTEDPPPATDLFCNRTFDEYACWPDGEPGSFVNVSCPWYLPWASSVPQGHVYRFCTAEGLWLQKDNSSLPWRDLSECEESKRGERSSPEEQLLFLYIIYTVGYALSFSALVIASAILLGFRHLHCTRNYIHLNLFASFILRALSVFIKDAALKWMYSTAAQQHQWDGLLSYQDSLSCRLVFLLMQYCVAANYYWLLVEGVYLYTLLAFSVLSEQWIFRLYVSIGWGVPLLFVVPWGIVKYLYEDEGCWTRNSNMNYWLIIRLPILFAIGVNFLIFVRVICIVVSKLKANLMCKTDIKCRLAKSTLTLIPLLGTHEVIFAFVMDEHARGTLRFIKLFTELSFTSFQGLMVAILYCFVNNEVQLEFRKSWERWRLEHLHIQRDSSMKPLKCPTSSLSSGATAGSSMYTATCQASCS

For the compound `CC(C)C[C@H](NC(=O)[C@H](CC(C)C)NC(=O)[C@H](Cc1c[nH]c2ccccc12)NC(=O)[C@H](CCC(N)=O)NC(=O)[C@@H](NC(=O)[C@H](Cc1ccccc1)NC(=O)[C@H](CC(C)C)NC(=O)[C@H](CSCC(=O)NCCCC[C@H](NC(=O)CC[C@H](NC(=O)CC[C@H](NC(=O)COCCOCCNC(=O)CCCCCCCCCCCCCCCCC(=O)O)C(=O)O)C(=O)O)C(=O)O)NC(=O)[C@H](C)NC(=O)[C@H](C)NC(=O)[C@H](CCC(N)=O)NC(=O)[C@H](CCCCN)NC(=O)[C@H](CCC(=O)O)NC(=O)[C@H](CC(C)C)NC(=O)[C@H](Cc1ccc(O)cc1)NC(=O)[C@H](Cc1ccc(O)cc1)NC(=O)[C@H](CO)NC(=O)[C@H](Cc1ccc(O)cc1)NC(=O)[C@H](CC(=O)O)NC(=O)[C@H](CO)NC(=O)[C@@H](NC(=O)[C@H](Cc1ccccc1)NC(=O)[C@@H](NC(=O)CNC(=O)[C@H](CCC(=O)O)NC(=O)C(C)(C)NC(=O)[C@@H](N)Cc1ccc(O)cc1)[C@@H](C)O)[C@@H](C)O)C(C)C)C(=O)N[C@@H](C)C(=O)NCC(=O)NCC(=O)N1CCC[C@H]1C(=O)N[C@@H](CO)C(=O)N[C@@H](CO)C(=O)NCC(=O)N[C@@H](C)C(=O)N1CCC[C@H]1C(=O)N1CCC[C@H]1C(=O)N1CCC[C@H]1C(=O)N[C@@H](CO)C(N)=O` (H-Y[Aib]EGTFTSDYSYYLEKQAAC(X3)LFVQWLLAGGPSSGAPPPS-NH2), the figures for the EC50 in assay [1] and in assay [2] were 0.67 nM and 1.02 nM, respectively. For the same compound, in the assay with Mus musculus [3], the result was Active.
Regarding `CC(C)C[C@H](NC(=O)[C@H](CC(C)C)NC(=O)[C@H](Cc1c[nH]c2ccccc12)NC(=O)[C@H](CCC(N)=O)NC(=O)[C@@H](NC(=O)[C@H](Cc1ccccc1)NC(=O)[C@H](CC(C)C)NC(=O)[C@H](CCCCN)NC(=O)[C@H](C)NC(=O)[C@H](C)NC(=O)[C@H](CCC(N)=O)NC(=O)[C@H](CCCCN)NC(=O)[C@H](CCC(=O)O)NC(=O)[C@H](CC(C)C)NC(=O)[C@H](CSCC(=O)NCCCC[C@H](NC(=O)CC[C@H](NC(=O)CC[C@H](NC(=O)COCCOCCNC(=O)CCCCCCCCCCCCCCCCC(=O)O)C(=O)O)C(=O)O)C(=O)O)NC(=O)[C@H](Cc1ccc(O)cc1)NC(=O)[C@H](CO)NC(=O)[C@H](Cc1ccc(O)cc1)NC(=O)[C@H](CC(=O)O)NC(=O)[C@H](CO)NC(=O)[C@@H](NC(=O)[C@H](Cc1ccccc1)NC(=O)[C@@H](NC(=O)CNC(=O)[C@H](CCC(=O)O)NC(=O)C(C)(C)NC(=O)[C@@H](N)Cc1ccc(O)cc1)[C@@H](C)O)[C@@H](C)O)C(C)C)C(=O)N[C@@H](C)C(=O)NCC(=O)NCC(=O)N1CCC[C@H]1C(=O)N[C@@H](CO)C(=O)N[C@@H](CO)C(=O)NCC(=O)N[C@@H](C)C(=O)N1CCC[C@H]1C(=O)N1CCC[C@H]1C(=O)N1CCC[C@H]1C(=O)N[C@@H](CO)C(N)=O` (H-Y[Aib]EGTFTSDYSYC(X3)LEKQAAKLFVQWLLAGGPSSGAPPPS-NH2), the EC50 was determined as 0.14 nM in assay [1] and 0.29 nM in assay [2]. Also, the result in the assay with Mus musculus [4] was Active.
Take SEMAGLUTIDE: in the assay on Mus musculus [5], the result was inactive. The result in the assay on Mus musculus [6] was Active. The Activity in the assay with Mus musculus [7] was found to be 10%.
`CC(C)C[C@H](NC(=O)[C@H](CC(C)C)NC(=O)[C@H](Cc1c[nH]c2ccccc12)NC(=O)[C@H](CCC(N)=O)NC(=O)[C@@H](NC(=O)[C@H](Cc1ccccc1)NC(=O)[C@H](CC(C)C)NC(=O)[C@H](CCCCN)NC(=O)[C@H](C)NC(=O)[C@H](C)NC(=O)[C@H](CCC(N)=O)NC(=O)[C@H](CCCCN)NC(=O)[C@H](CCC(=O)O)NC(=O)[C@H](CC(C)C)NC(=O)[C@H](CSCC(=O)NCCCC[C@H](NC(=O)CC[C@H](NC(=O)CC[C@H](NC(=O)COCCOCCNC(=O)CCCCCCCCCCCCCCCCCCC(=O)O)C(=O)O)C(=O)O)C(=O)O)NC(=O)[C@H](Cc1ccc(O)cc1)NC(=O)[C@H](CO)NC(=O)[C@H](Cc1ccc(O)cc1)NC(=O)[C@H](CC(=O)O)NC(=O)[C@H](CO)NC(=O)[C@@H](NC(=O)[C@H](Cc1ccccc1)NC(=O)[C@@H](NC(=O)CNC(=O)[C@H](CCC(=O)O)NC(=O)C(C)(C)NC(=O)[C@@H](N)Cc1ccc(O)cc1)[C@@H](C)O)[C@@H](C)O)C(C)C)C(=O)N[C@@H](C)C(=O)NCC(=O)NCC(=O)N1CCC[C@H]1C(=O)N[C@@H](CO)C(=O)N[C@@H](CO)C(=O)NCC(=O)N[C@@H](C)C(=O)N1CCC[C@H]1C(=O)N1CCC[C@H]1C(=O)N1CCC[C@H]1C(=O)N[C@@H](CO)C(N)=O` (H-Y[Aib]EGTFTSDYSYC(X4)LEKQAAKLFVQWLLAGGPSSGAPPPS-NH2): the EC50 in assay [1] was found to be 0.064 nM; in assay [2] it was 0.25 nM. For the same compound, in the assay on Mus musculus [3], the result was Active.
